Results from the supplement of paper PMC4862054.

Legend:
Assay in all cases: normalised viability (% of control), CellTiter-Blue; higher = more viable cells (about 100 = DMSO control)
Conditions in all cases: incubation time: 72 h
[1] = tested on: BT-549
Protocol: (§1)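 DSRT, CellTiter-Blue viability, 72 h incubation. Signal is normalised to DMSO and benzethonium chloride controls. Value is the normalised response at dose 3.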

[2] = tested on: CAL-85-1
Protocol: as §1

[3] = tested on: Hs578T
Protocol: as §1

[4] = tested on: MFM-223
Protocol: as §1

[5] = tested on: DU-4475
Protocol: as §1

[6] = tested on: HCC1143
Protocol: as §1

[7] = tested on: MDA-MB-453
Protocol: as §1

[8] = tested on: CAL-51
Protocol: as §1

[9] = tested on: HCC1599
Protocol: as §1

[10] = tested on: MDA-MB-231
Protocol: as §1

[11] = tested on: HDQ-P1
Protocol: as §1

[12] = tested on: MDA-MB-468
Protocol: as §1

[13] = tested on: CAL-120
Protocol: as §1

[14] = tested on: BT-474
Protocol: as §1

[15] = tested on: MDA-MB-436
Protocol: as §1

[16] = tested on: CAL-148
Protocol: as §1

[17] = tested on: SK-BR-3
Protocol: as §1

[18] = tested on: HCC1937
Protocol: as §1

[19] = tested on: Hs578T; remark: listed apart in the source
Method in brief: (§2)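 Normalised viability is given for a single listed concentration of the series. In 384-well plates, breast cancer cell lines were incubated 72 h with compound, then read with CellTiter-Blue (2 h, 37 °C) at 560/590 nm. Per-plate scaling set vehicle to 100 and a positive kill control to 0, with Z'-factor quality control.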

[20] = tested on: MFM-223; remark: listed apart in the source
Method in brief: as §2

[21] = tested on: DU-4475; remark: listed apart in the source
Method in brief: as §2

[22] = tested on: MDA-MB-453; remark: listed apart in the source
Method in brief: as §2

[23] = tested on: CAL-51; remark: listed apart in the source
Method in brief: as §2

[24] = tested on: HDQ-P1; remark: listed apart in the source
Method in brief: as §2

[25] = tested on: MDA-MB-468; remark: listed apart in the source
Method in brief: as §2

[26] = tested on: CAL-120; remark: listed apart in the source
Method in brief: as §2

[27] = tested on: BT-474; remark: listed apart in the source
Method in brief: as §2

[28] = tested on: CAL-148; remark: listed apart in the source
Method in brief: as §2

[29] = tested on: SK-BR-3; remark: listed apart in the source
Method in brief: as §2

[30] = tested on: HCC1937; remark: listed apart in the source
Method in brief: as §2

C[C@@H](Oc1cc(-c2cnn(C3CCNCC3)c2)cnc1N)c1c(Cl)ccc(F)c1Cl [Crizotinib]
Conditions | normalised viability [%]
[1], 100 nM | 95.2
[2], 10 nM | 93.8
[3], 100 nM | 64.8
[4], 100 nM | 83.4
[5], 10 nM | 91.3
[6], 100 nM | 95.8
[7], 10 nM | 94.2
[8], 10 nM | 107
[9], 100 nM | 99.6
[10], 100 nM | 84.7
[11], 10 nM | 85
[12], 100 nM | 97.7
[13], 100 nM | 96.8
[14], 100 nM | 92.7
[15], 100 nM | 84.8
[16], 10 nM | 105
[17], 100 nM | 59.1
[18], 100 nM | 102
[19], 10 nM | 102
[19], 1000 nM | 103
[19], 10000 nM | 34
[20], 10 nM | 75.5
[20], 1000 nM | 73
[20], 10000 nM | 34.1
[21], 3 nM | 94.9
[21], 30 nM | 98.8
[21], 100 nM | 96.2
[22], 3 nM | 95.2
[22], 30 nM | 81.3
[22], 100 nM | 87.6
[23], 3 nM | 107
[23], 30 nM | 107
[23], 100 nM | 108
[24], 3 nM | 88.4
[24], 30 nM | 91.3
[24], 100 nM | 88.6
[25], 10 nM | 107
[25], 1000 nM | 95.3
[25], 10000 nM | 8.61
[26], 10 nM | 90.3
[26], 1000 nM | 83.4
[26], 10000 nM | 9.87
[27], 10 nM | 94.2
[27], 1000 nM | 93.3
[27], 10000 nM | 10.3
[28], 3 nM | 91.8
[28], 30 nM | 94.1
[28], 100 nM | 100
[29], 10 nM | 97.2
[29], 1000 nM | 110
[29], 10000 nM | 5.81
[30], 10 nM | 38.1
[30], 1000 nM | 89.2
[30], 10000 nM | 7.72

N.N.[Cl][Pt][Cl] [Cisplatin]
Conditions | normalised viability [%]
[1], 100 nM | 105
[2], 10 nM | 104
[3], 100 nM | 106
[4], 100 nM | 93.7
[5], 10 nM | 103
[6], 100 nM | 103
[7], 10 nM | 111
[8], 10 nM | 108
[9], 100 nM | 95.4
[10], 100 nM | 96.4
[11], 10 nM | 130
[12], 100 nM | 99.1
[13], 100 nM | 86.5
[14], 100 nM | 127
[15], 100 nM | 89.8
[16], 10 nM | 94.8
[17], 100 nM | 90.5
[18], 100 nM | 95.1
[19], 10 nM | 100
[19], 1000 nM | 139
[19], 10000 nM | 122
[20], 10 nM | 88.5
[20], 1000 nM | 91
[20], 10000 nM | 99.1
[21], 3 nM | 105
[21], 30 nM | 116
[21], 100 nM | 88.8
[22], 3 nM | 124
[22], 30 nM | 117
[22], 100 nM | 110
[23], 3 nM | 107
[23], 30 nM | 97.9
[23], 100 nM | 109
[24], 3 nM | 116
[24], 30 nM | 118
[24], 100 nM | 111
[25], 10 nM | 101
[25], 1000 nM | 101
[25], 10000 nM | 106
[26], 10 nM | 90.3
[26], 1000 nM | 93.3
[26], 10000 nM | 102
[27], 10 nM | 115
[27], 1000 nM | 122
[27], 10000 nM | 135
[28], 3 nM | 92.1
[28], 30 nM | 102
[28], 100 nM | 103
[29], 10 nM | 99.1
[29], 1000 nM | 105
[29], 10000 nM | 111
[30], 10 nM | 87
[30], 1000 nM | 106
[30], 10000 nM | 105

CNCc1ccc(-c2[nH]c3cc(F)cc4c3c2CCNC4=O)cc1 [Rucaparib]
Conditions | normalised viability [%]
[1], 100 nM | 112
[2], 10 nM | 87.6
[3], 100 nM | 75.2
[4], 100 nM | 109
[5], 10 nM | 106
[6], 100 nM | 110
[7], 10 nM | 98.8
[8], 10 nM | 114
[9], 100 nM | 114
[10], 100 nM | 98
[11], 10 nM | 109
[12], 100 nM | 110
[13], 100 nM | 93.3
[14], 100 nM | 100
[15], 100 nM | 129
[16], 10 nM | 83.4
[17], 100 nM | 76.4
[18], 100 nM | 85.9
[19], 10 nM | 112
[19], 1000 nM | 107
[19], 10000 nM | 94.4
[20], 10 nM | 95.4
[20], 1000 nM | 99.2
[20], 10000 nM | 61.5
[21], 3 nM | 84
[21], 30 nM | 96.6
[21], 100 nM | 83
[22], 3 nM | 111
[22], 30 nM | 89.3
[22], 100 nM | 110
[23], 3 nM | 119
[23], 30 nM | 114
[23], 100 nM | 110
[24], 3 nM | 87
[24], 30 nM | 88
[24], 100 nM | 88.2
[25], 10 nM | 103
[25], 1000 nM | 105
[25], 10000 nM | 77.5
[26], 10 nM | 77.4
[26], 1000 nM | 81
[26], 10000 nM | 76.8
[27], 10 nM | 108
[27], 1000 nM | 111
[27], 10000 nM | 102
[28], 3 nM | 90.5
[28], 30 nM | 87.6
[28], 100 nM | 92.6
[29], 10 nM | 97.5
[29], 1000 nM | 98.2
[29], 10000 nM | 78.5
[30], 10 nM | 55.9
[30], 1000 nM | 72.2
[30], 10000 nM | 52.7

Cc1ccc(C(=O)N(CCCN)[C@@H](c2oc3cc(Cl)ccc3c(=O)c2Cc2ccccc2)C(C)C)cc1
Conditions | normalised viability [%]
[1], 10 nM | 27.4
[2], 1 nM | 98.7
[3], 10 nM | 19.5
[4], 10 nM | 41.6
[5], 1 nM | 105
[6], 10 nM | 46.6
[7], 1 nM | 112
[8], 1 nM | 103
[9], 10 nM | 80.5
[10], 10 nM | 27.6
[11], 1 nM | 105
[12], 10 nM | 29.1
[13], 10 nM | 31.1
[14], 10 nM | 30.3
[15], 10 nM | 55.9
[16], 1 nM | 92.5
[17], 10 nM | 18
[18], 10 nM | 25.2
[19], 1 nM | 102
[19], 100 nM | 13.6
[19], 1000 nM | 13.6
[20], 1 nM | 105
[20], 100 nM | 43.4
[20], 1000 nM | 40.6
[21], 0.3 nM | 91.4
[21], 3 nM | 108
[21], 10 nM | 52.9
[22], 0.3 nM | 123
[22], 3 nM | 103
[22], 10 nM | 23.8
[23], 0.3 nM | 106
[23], 3 nM | 101
[23], 10 nM | 38.6
[24], 0.3 nM | 128
[24], 3 nM | 75.8
[24], 10 nM | 59.1
[25], 1 nM | 88.4
[25], 100 nM | 26.5
[25], 1000 nM | 36.3
[26], 1 nM | 53
[26], 100 nM | 27.8
[26], 1000 nM | 26.7
[27], 1 nM | 117
[27], 100 nM | 27.5
[27], 1000 nM | 28.7
[28], 0.3 nM | 93
[28], 3 nM | 106
[28], 10 nM | 16.1
[29], 1 nM | 45
[29], 100 nM | 20.8
[29], 1000 nM | 18.2
[30], 1 nM | 51.2
[30], 100 nM | 26.6
[30], 1000 nM | 22.3
